Data from article PMC10558864 (Heliyon, 2023).
Where no end group is shown, it is not given here.

Tests used:
[1] = tested on: S. typhi^R; type: cell-based, Salmonella typhi; details: for MIC of antibiotic alone, S. typhi: resistant strain, MTT indicator; for MIC of antibiotic alone, S. typhi / FIC index of peptide in combination with Cefotaxime, S. typhi^R / FIC index of peptide in combination with Chloramphenicol, S. typhi^R / FIC index of peptide in combination with Erythromycin, S. typhi^R: 37 °C, 24 h; for FIC index of Cefotaxime in combination with the peptide, S. typhi^R / FIC index of Chloramphenicol in combination with the peptide, S. typhi^R / FIC index of Erythromycin in combination with the peptide, S. typhi^R: FIC(A) = MIC of antibiotic in the presence of peptide / MIC of antibiotic alone; for FIC index of peptide in combination with Cefotaxime, S. typhi^R / FIC index of peptide in combination with Chloramphenicol, S. typhi^R / FIC index of peptide in combination with Erythromycin, S. typhi^R: checkerboard, FIC(A)+FIC(P)
[2] = tested on: MRSA; type: cell-based, methicillin-resistant Staphylococcus aureus; details: for MIC of antibiotic alone, MRSA: MTT indicator; for FIC index of Cefotaxime in combination with the peptide, MRSA / FIC index of Chloramphenicol in combination with the peptide, MRSA / FIC index of Erythromycin in combination with the peptide, MRSA: FIC(A) = MIC of antibiotic in the presence of peptide / MIC of antibiotic alone
[3] = tested on: E. coli^R; type: cell-based, Escherichia coli; details: for MIC of antibiotic alone, E. coli: resistant strain, MTT indicator; for MIC of antibiotic alone, E. coli / FIC index of peptide in combination with Cefotaxime, E. coli^R / FIC index of peptide in combination with Chloramphenicol, E. coli^R / FIC index of peptide in combination with Erythromycin, E. coli^R: 37 °C, 24 h; for FIC index of Chloramphenicol in combination with the peptide, E. coli^R / FIC index of Erythromycin in combination with the peptide, E. coli^R / FIC index of Cefotaxime in combination with the peptide, E. coli^R: FIC(A) = MIC of antibiotic in the presence of peptide / MIC of antibiotic alone; for FIC index of peptide in combination with Cefotaxime, E. coli^R / FIC index of peptide in combination with Chloramphenicol, E. coli^R / FIC index of peptide in combination with Erythromycin, E. coli^R: checkerboard, FIC(A)+FIC(P)
[4] = tested on: E. coli^N (standard strain); type: cell-based, Escherichia coli; details: micro broth dilution, 37 °C, 24 h, MTT indicator, triplicates
[5] = tested on: S. pyogenes; type: cell-based, Streptococcus pyogenes; details: micro broth dilution, 37 °C, 24 h, MTT indicator, triplicates
[6] = tested on: S. aureus; type: cell-based, Staphylococcus aureus; details: micro broth dilution, 37 °C, 24 h, MTT indicator, triplicates
[7] = tested on: K. pneumoniae; type: cell-based, Klebsiella pneumoniae; details: micro broth dilution, 37 °C, 24 h, MTT indicator, triplicates
[8] = tested on: S. typhi^N; type: cell-based, Salmonella typhi; details: micro broth dilution, 37 °C, 24 h, MTT indicator, triplicates
[9] = tested on: MRSA; type: cell-based, methicillin-resistant Staphylococcus aureus; details: micro broth dilution, 37 °C, 24 h, MTT indicator, triplicates
[10] = tested on: S. typhi^R; type: cell-based, Salmonella typhi; details: micro broth dilution, 37 °C, 24 h, MTT indicator, triplicates
[11] = tested on: E. coli^R (resistant strain); type: cell-based, Escherichia coli; details: micro broth dilution, 37 °C, 24 h, MTT indicator, triplicates
[12] = tested on: human erythrocytes; test: Hemolytic activity; type: cell-based; details: 1% human erythrocytes in PBS pH 7.40, 37 °C, 1 h, absorbance 570 nm
[13] = tested on: microorganisms tested (standard and resistant bacterial strains); test: MIC range over the strains tested and therapeutic index; type: cell-based; details: for MIC range: range over the strains tested, micro broth dilution
[14] = checkerboard, FIC(A)+FIC(P), 37 °C, 24 h

Row | Compound | MIC of antibiotic alone, S. typhi [1] [µM] | MIC of antibiotic alone, MRSA ([2]; 37 °C, 24 h) [µM] | Minimum inhibitory concentration; MIC, E. coli^N [4] [µM] | Minimum inhibitory concentration; MIC, S. pyogenes [5] [µM] | Minimum inhibitory concentration; MIC, S. aureus [6] [µM] | Minimum inhibitory concentration; MIC, K. pneumoniae [7] [µM] | Minimum inhibitory concentration; MIC, S. typhi^N [8] [µM] | Minimum inhibitory concentration; MIC, MRSA [9] [µM] | Minimum inhibitory concentration; MIC, S. typhi^R [10] [µM] | Minimum inhibitory concentration; MIC, E. coli^R [11] [µM] | FIC index of Cefotaxime in combination with the peptide, S. typhi^R [1] | FIC index of Chloramphenicol in combination with the peptide, S. typhi^R [1] | FIC index of Erythromycin in combination with the peptide, S. typhi^R [1] | FIC index of Cefotaxime in combination with the peptide, MRSA [2] | FIC index of Chloramphenicol in combination with the peptide, MRSA [2] | FIC index of Erythromycin in combination with the peptide, MRSA [2] | FIC index of Chloramphenicol in combination with the peptide, E. coli^R [3] | FIC index of Erythromycin in combination with the peptide, E. coli^R [3] | MHC (minimum concentration of peptide that causes hemolysis) [12] [mM] | FIC index of Cefotaxime in combination with the peptide, E. coli^R [3] | further results
1 | CO/N=C(\C(=O)N[C@@H]1C(=O)N2C(C(=O)O)=C(COC(C)=O)CS[C@H]12)c1csc(N)n1 [Cefotaxime, reference compound] | 68.6 | 34.3 |  |  |  |  |  |  |  |  |  |  |  |  |  |  |  |  |  |  | 
2 | O=C(N[C@H](CO)[C@H](O)c1ccc([N+](=O)[O-])cc1)C(Cl)Cl [Chloramphenicol, reference compound] | 6 | 193.4 |  |  |  |  |  |  |  |  |  |  |  |  |  |  |  |  |  |  | MIC of antibiotic alone, E. coli [3]: 386.8 µM
3 | CC[C@H]1OC(=O)[C@H](C)[C@@H](O[C@H]2C[C@@](C)(OC)[C@@H](O)[C@H](C)O2)[C@H](C)[C@@H](O[C@@H]2O[C@H](C)C[C@H](N(C)C)[C@H]2O)[C@](C)(O)C[C@@H](C)C(=O)[C@H](C)[C@@H](O)[C@]1(C)O [Erythromycin, reference compound] | 21.3 | 1.3 |  |  |  |  |  |  |  |  |  |  |  |  |  |  |  |  |  |  | MIC of antibiotic alone, E. coli [3]: 85.2 µM
4 | AILFLSLGAIKKG [BRGP-001] |  |  | >1879 | >1879 | 117 | 117 | >1879 | 15 | >1879 | >1879 | 0.50 | 0.50 | 0.50 | 0.50 | 0.063 | 0.54 | 0.25 | 0.12 | 1.127 |  | FIC index of peptide in combination with Chloramphenicol, MRSA [2, 14]: 2.063; FIC index of peptide in combination with Erythromycin, MRSA [2, 14]: 0.81; MIC range [13]: 15 to 117 µM
5 | FALSILGALGIKK [BRGP-006] |  |  | 470 | 470 | 939 | 1879 | >1879 | 235 | 235 | 470 | 0.50 | 0.50 | 1.00 | 0.50 | 0.25 | 1.00 | 0.25 | 0.12 | 1.503 | 0.50 | FIC index of peptide in combination with Cefotaxime, S. typhi^R [1]: 1.00; FIC index of peptide in combination with Chloramphenicol, S. typhi^R [1]: 0.53; FIC index of peptide in combination with Erythromycin, S. typhi^R [1]: 1.50; FIC index of peptide in combination with Cefotaxime, MRSA [2, 14]: 0.75; FIC index of peptide in combination with Chloramphenicol, MRSA [2, 14]: 0.75; FIC index of peptide in combination with Erythromycin, MRSA [2, 14]: 1.030; FIC index of peptide in combination with Cefotaxime, E. coli^R [3]: 2.50; FIC index of peptide in combination with Chloramphenicol, E. coli^R [3]: 0.75; FIC index of peptide in combination with Erythromycin, E. coli^R [3]: 0.25; MIC range [13]: 235 to 1879 µM
6 | FLIKSLAGAKGIL [BRGP-002] |  |  | >1879 | >1879 | >1879 | >1879 | >1879 | >1879 | >1879 | >1879 | 1.00 | 1.00 |  | 0.50 | 1.00 | 1.00 | 0.50 |  | 1.879 |  | 
7 | GIKGALKSILFAL [BRGP-005] |  |  | 470 | 470 | >1879 | >1879 | >1879 | >1879 | 470 | 235 | 0.50 | 1.00 | 0.50 | 0.50 | 0.50 | 1.00 | 0.25 | 0.12 | 0.188 | 0.25 | FIC index of peptide in combination with Cefotaxime, S. typhi^R [1]: 0.75; FIC index of peptide in combination with Chloramphenicol, S. typhi^R [1]: 1.032; FIC index of peptide in combination with Erythromycin, S. typhi^R [1]: 0.63; FIC index of peptide in combination with Cefotaxime, E. coli^R [3]: 2.25; FIC index of peptide in combination with Chloramphenicol, E. coli^R [3]: 1.25; FIC index of peptide in combination with Erythromycin, E. coli^R [3]: 0.37; Therapeutic Indices (MHC/MIC) ([13]; range over the MIC range): 0.80 to 0.40; MIC range [13]: 235 to 470 µM
8 | KGGAIKSLFLILA [BRGP-003] |  |  | >1879 | >1879 | >1879 | >1879 | >1879 | >1879 | >1879 | >1879 | 1.00 | 1.00 |  | 0.50 | 0.50 | 0.54 | 1.00 | 1.00 | 1.127 | 0.50 | 
9 | KGIKGALSILFAL [BRGP-004] |  |  | >1879 | >1879 | >1879 | >1879 | >1879 | >1879 | >1879 | >1879 | 1.00 | 1.00 | 0.50 | 0.50 | 0.50 | 0.54 | 0.50 | 0.12 | 1.503 | 0.50 | 
10 | PQQYPEMNTRRNW [BRGP-007] |  |  | >1454 | >1454 | >1454 | >1454 | >1454 | >1454 | >1454 | >1454 |  |  |  |  |  |  |  |  | 1.454 |  | 
